Laboratory results: patent publication US9629822B2, “Flavonoid based antiviral targets” (UNIVERSITY OF CENTRAL FLORIDA RESEARCH FOUNDATION, INC., priority 2012, dated 2017)
Where two headings read alike, the source gives them in different places.

What was measured:
[1] = test system: mock transfected 293T HEK cells; assay: PathDetect Elk1 luminescence in mock transfected (empty pcDNA3 vector) 293T HEK cells, off-target effect; format: cell-based, human; settings: for activation at 10 µM: Homo sapiens, read-out: Effect(%) on mock cells with each drug at 10 μM
Procedure, shortened: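 HEK 293T cells were transiently transfected with PathDetect Elk1/luciferase and empty pcDNA3, then exposed to 10 μM compound in medium with 1% FBS and 1% DMSO for 20-24 h at 37 °C. BrightGlo luminescence was compared with the 1% DMSO control: % effect = 100%×(mock/DMSO) − 100%.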

[2] = 10 μM vs 1% DMSO control, Equation 1

SMILES | toxicity at 10 μM in HEK cells, in words ([1]; 10 μM) | Effect(%) on mock cells with each drug at 10 μM [1, 2] | melting point | activation at 10 µM [1, 2] | activation at 10 µM [1]
COc1ccc(Br)cc1/C=C/C(=O)c1c(O)cccc1OCc1ccccc1 [Compound 8l, (E)-1-(2-(Benzyloxy)-6-hydroxyphenyl)-3-(5-bromo-2-methoxyphenyl)prop-2-en-1-one] | very toxic | Toxic |  |  | 
COc1ccc(Br)cc1/C=C/C(=O)c1ccc2ccccc2c1O [Compound 8m, (E)-3-(5-bromo-2-methoxyphenyl)-1-(1-hydroxynaphthalen-2-yl)prop-2-en-1-one] |  | 35% | 117 to 127 °C | 35% | 
COc1ccccc1-c1oc2ccccc2c(=O)c1O [Compound 9a, 3-Hydroxy-2-(2-methoxyphenyl)-4H-chromen-4-one] |  |  |  | -1% | 
COc1ccc(Br)cc1-c1oc2ccccc2c(=O)c1O [Compound 9b, 2-(5-Bromo-2-methoxyphenyl)-3-hydroxy-4H-chromen-4-one] |  |  | 159 to 161 °C | -11% | 
COc1ccc(Cl)cc1-c1oc2ccccc2c(=O)c1O [Compound 9h, 2-(5-chloro-2-methoxyphenyl)-3-hydroxy-4H-chromen-4-one] |  | 2% | 160 to 167 °C | 2% | 
COc1ccccc1-c1cc(=O)c2c(O)cccc2o1 [Compound 12a, 5-Hydroxy-2-(2-methoxyphenyl)-4H-chromen-4-one] |  |  |  |  | 2%
COc1ccc(Br)cc1-c1cc(=O)c2c(O)cccc2o1 [Compound 12b, 2-(5-Bromo-2-methoxyphenyl)-5-hydroxy-4H-chromen-4-one] |  |  | 175 to 180 °C | -16% | 
